Measurements: patent publication US20220401482A1, “GENERATION OF CD38 KNOCK-OUT PRIMARY AND EXPANDED HUMAN NK CELLS” (RESEARCH INSTITUTE AT NATIONWIDE CHILDREN'S HOSPITAL, priority 2019, published 2022)

Experiments:
CD38 on MM cell lines = assay: CD38 expression on MM cell lines after ATRA; format: cell-based, human; conditions: pretreatment, 50 nM, 48 hours
Source text: Control and ATRA treated samples are shown with black and gray line respectively. Unstained controls are depicted with filled histogram.

CD38 on NK cells [1] = assay: CD38 expression on NK cells after ex vivo ATRA; format: cell-based, human; conditions: 50 nM, 48 hours
Experimental: (§1) FIGS. 15A-15B show cytotoxicity and DARA-mediated ADCC activity of paired CD38^WT and CD38^KO NK cells against myeloma cell lines pretreated with 50 nM ATRA for 48 hours (mean±SD). […] Frozen peripheral blood mononuclear cells were thawed and analyzed at once. […] Control and ATRA treated samples are shown with black and gray line respectively. Unstained controls are depicted with filled histogram. […] FIGS. 15F-15G Cytotoxicity and DARA-mediated ADCC activity of paired CD38^WT and CD38^KO NK cells against myeloma cell lines in a 48 hour-cytotoxicity assay in the presence of 50 nM ATRA or solvent control. E:T ratio is 0.25:1 for MM.1S and 0.5:1 for KMS-11 (mean±SD).

MM cell lines = assay: Flow-based cytotoxicity / ADCC assay; format: cell-based, human
Experimental: NK function assays. NK cell conjugation assay was performed as previously published and as detailed above. To quantify fratricide, CD38^WT and CD38^KO NK cells were each treated with 10 μg/ml of DARA or solvent control for 4 or 24 hours, then stained with PO-PRO™-1 dye (Invitrogen, Eugene, Oreg.) and 7-aminoactinomycin D (7-AAD) (Invitrogen, Eugene, Oreg.)^15. Flow-based killing assays were performed as detailed in Supplemental Methods. In brief, CD38^WT or CD38^KO NK cells were co-cultured with CFSE-labeled target MM cells for 4 or 24 hours in the presence of 10 μg/ml of DARA or solvent as control.
(§2) To assess ADCC, MM cell lines or purified primary CD138^+ MM cells were labeled with 5 μM of CFSE and co-cultured with CD38^WT or CD38^KO NK cells at the indicated effector-to-target (E:T) ratios in flat bottom 96-well plates (Falcon, USA) in the presence of 10 μg/ml of DARA or solvent as control^38. […] The viability of target cells was analyzed after 4 hours for MM cell lines, and 24 hours for primary samples. In some experiments, myeloma cell lines were pretreated with 50 nM of ATRA for 2 days prior to 4-hour cytotoxicity assay. To study the effect of ATRA on overall DARA-mediated NK cell cytotoxicity, MM cells and NK cells were co-cultured for 48 hours in the presence of DARA and 50 nM of ATRA. Viable target cells were assessed from the percent or absolute number of 7-AAD negative/CFSE positive cells among total CFSE positive cells or using beads. Background was determined from the target cells incubated in the absence of effector cells and DARA. The percentage of DARA-mediated ADCC (%) was calculated according to the formula: (1−the percent or absolute number of viable target cells in the presence of effector cells with DARA/that of the corresponding sample with solvent control)×100. All assays were performed in triplicate with 2 or 3 independent donors.

NK cells [2] = assay: NK cell fratricide assay (viability of NK cells treated with anti-CD38 antibody); format: cell-based, human; conditions: DARA 48 hours with 50 nM ATRA
Experimental: NK function assays. NK cell conjugation assay was performed as previously published and as detailed above. […] Flow-based killing assays were performed as detailed in Supplemental Methods. In brief, CD38^WT or CD38^KO NK cells were co-cultured with CFSE-labeled target MM cells for 4 or 24 hours in the presence of 10 μg/ml of DARA or solvent as control.
[…] Viable NK cells (PO-PRO™-1 negative/7-AAD negative) were assessed based on the frequency or absolute number using beads (Becton Dickinson Biosciences).

CD38 on NK cells [3] = assay: CD38 expression on PB-NK of APL patients during ATRA treatment; format: in vivo, human; conditions: consolidation therapy, versus prior to treatment
Experimental: as §1

H929 cell line = assay: Flow-based cytotoxicity assay; format: cell-based, human; conditions: absence of NK cells and complement, DARA 10 μg/ml, 4 hours
Experimental: FIGS. 11A-11D show resistance of CD16^KO NK cells to DARA-induced fratricide.
as §2

NK cells [4] = conditions: patients; cited from earlier work
[5] = concurrent treatment of MM and NK cells, 50 nM, 48 hours

Compound	CD38 levels on MM target cells (CD38 on MM cell lines)	CD38 levels on CD38^KO NK cells (CD38 on NK cells [1])	CD38 levels on CD38^WT NK cells (CD38 on NK cells [1])	DARA-mediated ADCC (MM cell lines; MM cells pretreated with ATRA, both CD38^WT and CD38^KO NK cells)	DARA-mediated ADCC of CD38^KO NK cells (MM cell lines; [5])	DARA-mediated ADCC of CD38^WT NK cells (MM cell lines; [5])	direct cytotoxicity of CD38^WT and paired CD38^KO NK cells (MM cell lines; concurrent treatment, 50 nM, 48 hours)	fratricide of CD38^WT NK cells (NK cells [2])	CD38 on PB-NK of patients (CD38 on NK cells [3])	DARA-mediated lysis (H929 cell line)	persistence of decrease in circulating NK cells after discontinuation of treatment (NK cells [4])
CC1=C(/C=C/C(C)=C/C=C/C(C)=C/C(=O)O)C(C)(C)CCC1 [ATRA, all-trans retinoic acid]	up-regulates CD38 levels	not on the paired CD38^KO NK cells	up-regulates CD38 levels	improves DARA-mediated ADCC	no impact	significantly impaired	significantly reduced direct cytotoxicity	enhanced fratricide	significant up-regulation of CD38		
DARA: monoclonal antibody targeting CD38										no DARA-mediated lysis	3-6 months
